Data from ChEMBL document CHEMBL5724806, “Unraveling interindividual differences and functional consequences of gut microbial metabolism of immunosuppressants” (2024).

Tests used:
Format in all cases: ADME
[1] = (§1) The drug is tested on Odoribacter splanchnicus strain: DSM20712 for biotransformation under anaerobic condition. The drug concentrations were measured over 6 timepoints collected between 0 and 12 hours of incubation by liquid-chromatography-coupled mass spectrometry (LC–MS); parameters: dose 5 uM, timepoint 0, 1.5, 3, 6, 9, 12 hours; details: 5 µM
[2] = The drug is tested on Lactobacillus fermentum strain: DSM20052 for biotransformation under anaerobic condition. The drug concentrations were measured over 6 timepoints collected between 0 and 12 hours of incubation by liquid-chromatography-coupled mass spectrometry (LC–MS); parameters: dose 5 uM, timepoint 0, 1.5, 3, 6, 9, 12 hours; details: limosilactobacillus fermentum, 5 µM
[3] = The drug is tested on Ruminococcus gnavus strain: ATCC29149 for biotransformation under anaerobic condition. The drug concentrations were measured over 6 timepoints collected between 0 and 12 hours of incubation by liquid-chromatography-coupled mass spectrometry (LC–MS); parameters: dose 5 uM, timepoint 0, 1.5, 3, 6, 9, 12 hours; details: mediterraneibacter gnavus, 5 µM
[4] = (§2) The drug is tested on Lactobacillus reuteri strain: DSM20016 for biotransformation under microaerobic condition. The drug concentrations were measured over 6 timepoints collected between 0 and 12 hours of incubation by liquid-chromatography-coupled mass spectrometry (LC–MS); parameters: dose 5 uM, timepoint 0, 1.5, 3, 6, 9, 12 hours; details: limosilactobacillus reuteri, 5 µM
[5] = The drug is tested on Enterococcus faecalis strain: ATCC29212 for biotransformation under microaerobic condition. The drug concentrations were measured over 6 timepoints collected between 0 and 12 hours of incubation by liquid-chromatography-coupled mass spectrometry (LC–MS); parameters: dose 5 uM, timepoint 0, 1.5, 3, 6, 9, 12 hours; details: 5 µM
[6] = as §1, with “the gut metagenome community of A-01 with ENA study accession number: PRJEB31790” for “Odoribacter splanchnicus strain: DSM20712”, “7” for “6”; parameters: dose 5 uM, timepoint 0, 0.75, 1.5, 3, 6, 9, 12 hours; details: 5 µM
[7] = as §1, with “the gut metagenome community of A-06 with ENA study accession number: PRJEB31790” for “Odoribacter splanchnicus strain: DSM20712”, “7” for “6”; parameters: dose 5 uM, timepoint 0, 0.75, 1.5, 3, 6, 9, 12 hours; details: 5 µM
[8] = as §1, with “the gut metagenome community of A-09 with ENA study accession number: PRJEB31790” for “Odoribacter splanchnicus strain: DSM20712”, “7” for “6”; parameters: dose 5 uM, timepoint 0, 0.75, 1.5, 3, 6, 9, 12 hours; details: 5 µM
[9] = as §1, with “the gut metagenome community of T-01 with ENA study accession number: PRJEB31790” for “Odoribacter splanchnicus strain: DSM20712”, “7” for “6”; parameters: dose 5 uM, timepoint 0, 0.75, 1.5, 3, 6, 9, 12 hours; details: 5 µM
[10] = as §2, with “the gut metagenome community of A-03 with ENA study accession number: PRJEB31790” for “Lactobacillus reuteri strain: DSM20016”, “7” for “6”; parameters: dose 5 uM, timepoint 0, 0.75, 1.5, 3, 6, 9, 12 hours; details: 5 µM

SMILES	Bacterial Biotransformation [1]	Bacterial Biotransformation [2]	Bacterial Biotransformation [3]	Bacterial Biotransformation [4]	Bacterial Biotransformation [5]	Bacterial Biotransformation [6]	Bacterial Biotransformation [7]	Bacterial Biotransformation [8]	Bacterial Biotransformation [9]	Bacterial Biotransformation [10]
CCOc1nc2cccc(C(=O)O)c2n1Cc1ccc(-c2ccccc2-c2nnn[nH]2)cc1	Compound NOT metabolized	Compound metabolized	Compound NOT metabolized	Compound NOT metabolized	Compound NOT metabolized	Compound NOT metabolized	Compound NOT metabolized	Compound NOT metabolized	Compound NOT metabolized	Compound NOT metabolized
CCOC(=O)[C@H](CCc1ccccc1)N[C@@H](C)C(=O)N1[C@H](C(=O)O)C[C@@H]2CCC[C@@H]21	Compound NOT metabolized	Compound metabolized	Compound NOT metabolized	Compound NOT metabolized	Compound NOT metabolized	Compound NOT metabolized	Compound NOT metabolized	Compound NOT metabolized	Compound NOT metabolized	Compound NOT metabolized
C[C@@H](NCCCc1cccc(C(F)(F)F)c1)c1cccc2ccccc12	Compound NOT metabolized	Compound NOT metabolized	Compound NOT metabolized	Compound NOT metabolized	Compound NOT metabolized	Compound NOT metabolized	Compound NOT metabolized	Compound NOT metabolized	Compound metabolized	Compound NOT metabolized
CCOC(=O)C1=C(COCCN)NC(C)=C(C(=O)OC)C1c1ccccc1Cl (stereo not given) [AMLODIPINE]	Compound metabolized	Compound NOT metabolized	Compound NOT metabolized	Compound NOT metabolized	Compound metabolized	Compound NOT metabolized	Compound NOT metabolized	Compound NOT metabolized	Compound NOT metabolized	Compound NOT metabolized
CC(C)NCC(O)COc1ccc(CC(N)=O)cc1 (stereo not given) [ATENOLOL]	Compound NOT metabolized	Compound NOT metabolized	Compound NOT metabolized	Compound NOT metabolized	Compound NOT metabolized	Compound NOT metabolized	Compound NOT metabolized	Compound NOT metabolized	Compound NOT metabolized	Compound NOT metabolized
Cn1cnc([N+](=O)[O-])c1Sc1ncnc2nc[nH]c12 [AZATHIOPRINE]	Compound NOT metabolized	Compound metabolized	Compound metabolized	Compound metabolized	Compound metabolized	Compound NOT metabolized	Compound metabolized	Compound metabolized	Compound metabolized	Compound metabolized
C[C@H]1C[C@H]2[C@@H]3CCC4=CC(=O)C=C[C@]4(C)[C@@]3(F)[C@@H](O)C[C@]2(C)[C@@]1(O)C(=O)CO [BETAMETHASONE]	Compound NOT metabolized	Compound NOT metabolized	Compound NOT metabolized	Compound NOT metabolized	Compound NOT metabolized	Compound NOT metabolized	Compound metabolized	Compound metabolized	Compound NOT metabolized	Compound NOT metabolized
CCCC1O[C@@H]2C[C@H]3[C@@H]4CCC5=CC(=O)C=C[C@]5(C)[C@H]4[C@@H](O)C[C@]3(C)[C@]2(C(=O)CO)O1 (stereo not given in full) [BUDESONIDE]	Compound NOT metabolized	Compound NOT metabolized	Compound NOT metabolized	Compound NOT metabolized	Compound NOT metabolized	Compound NOT metabolized	Compound metabolized	Compound metabolized	Compound metabolized	Compound metabolized
C[C@]12CCC(=O)C=C1CC[C@@H]1[C@@H]2C(=O)C[C@@]2(C)[C@H]1CC[C@]2(O)C(=O)CO [CORTISONE]	Compound NOT metabolized	Compound NOT metabolized	Compound metabolized	Compound NOT metabolized	Compound NOT metabolized	Compound metabolized	Compound metabolized	Compound metabolized	Compound metabolized	Compound metabolized
C[C@@H]1C[C@H]2[C@@H]3CCC4=CC(=O)C=C[C@]4(C)[C@@]3(F)[C@@H](O)C[C@]2(C)[C@@]1(O)C(=O)CO [DEXAMETHASONE]	Compound NOT metabolized	Compound NOT metabolized	Compound NOT metabolized	Compound NOT metabolized	Compound NOT metabolized	Compound NOT metabolized	Compound metabolized	Compound metabolized	Compound NOT metabolized	Compound NOT metabolized
COc1ccc([C@@H]2Sc3ccccc3N(CCN(C)C)C(=O)[C@@H]2OC(C)=O)cc1 [DILTIAZEM]	Compound NOT metabolized	Compound NOT metabolized	Compound NOT metabolized	Compound NOT metabolized	Compound NOT metabolized	Compound metabolized	Compound metabolized	Compound metabolized	Compound NOT metabolized	Compound metabolized
